Data as given in US11358957B2, “Microbiocidal oxadiazole derivatives” (SYNGENTA PARTICIPATIONS AG, priority 2017, dated 2022).

How the values were obtained:
[1] = system: Puccinia recondita f. Sp. Tritici; test: Fungicidal activity against Puccinia recondita f. sp. tritici / wheat / leaf disc preventative (brown rust); assay type: in vivo; settings: foliar, 200 ppm in the applied formulation, wheat leaf segments cv. Kanzler, preventative (inoculated 1 day after application), compared to untreated, read-out: disease control
Outline: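 Segments of wheat cv. Kanzler on water agar were sprayed with compound and inoculated with spores 1 day later. They were kept at 19 °C, 75% rh and 12 h light/12 h dark. Percent disease control versus untreated was scored 7–9 days after application; compounds were tested at 200 ppm.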

[2] = system: Puccinia recondita f. Sp. Tritici; test: Fungicidal activity against Puccinia recondita f. sp. tritici / wheat / leaf disc curative (brown rust); assay type: in vivo; settings: foliar, 24 h, 200 ppm in the applied formulation, wheat leaf segments cv. Kanzler, curative (applied 1 day after inoculation), compared to untreated, read-out: disease control
Outline: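 Wheat leaf segments (cv. Kanzler) on agar were inoculated with brown rust spores, kept dark at 19 °C and 75% RH, then sprayed 1 day later with compound (DMSO stock diluted in 0.025% Tween20). Under 12 h light/12 h dark at 19 °C, percent disease control versus untreated was scored 6–8 days after application; 200 ppm applied.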

Phakopsora pachyrhizi = test: Fungicidal activity against Phakopsora pachyrhizi / soybean / leaf disc preventative (Asian soybean rust); assay type: in vivo; settings: foliar, 200 ppm in the applied formulation, soybean leaf disks, compared to untreated, read-out: disease control
Protocol: Leaf disks or leaf segments of various plant species are cut from plants grown in a greenhouse. The cut leaf disks or segments are placed in multiwell plates (24-well format) onto water agar. The leaf disks are sprayed with a test solution before (preventative) or after (curative) inoculation. Compounds to be tested are prepared as DMSO solutions (max. 10 mg/mL) which are diluted to the appropriate concentration with 0.025% Tween20 just before spraying. The inoculated leaf disks or segments are incubated under defined conditions (temperature, relative humidity, light, etc.) according to the respective test system. A single evaluation of disease level is carried out 3 to 14 days after inoculation, depending on the pathosystem. Percent disease control relative to the untreated check leaf disks or segments is then calculated. Soybean leaf disks are placed on water agar in multiwell plates (24-well format) and sprayed with the formulated test compound diluted in water. One day after application leaf discs are inoculated by spraying a spore suspension on the lower leaf surface. After an incubation period in a climate cabinet of 24-36 hours in darkness at 20° C. and 75% rh leaf disc are kept at 20° C. with 12 h light/day and 75% rh. The activity of a compound is assessed as percent disease control compared to untreated when an appropriate level of disease damage appears in untreated check leaf disks (12 to 14 days after application). The following compounds at 200 ppm in the applied formulation give at least 80% disease control in this test when compared to untreated control leaf disks under the same conditions, which show extensive disease development.

[3] = system: Glomerella lagenarium (Colletotrichum lagenarium); test: Fungicidal activity against Glomerella lagenarium (Colletotrichum lagenarium) liquid culture / cucumber / preventative (anthracnose); assay type: cell-based; settings: Colletotrichum orbiculare; 20 ppm in the applied formulation; liquid culture (PDB), inhibition of growth measured photometrically 3 to 4 days after application; compared to untreated; read-out: disease control
Outline: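 Conidia from cryogenic storage mixed into potato dextrose broth and added to compound in DMSO in microtiter plates. Incubated at 24° C.; growth inhibition read photometrically 3 to 4 days after application. Disease control expressed relative to untreated control, with compound at 20 ppm in the applied formulation.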

CCCOC(=O)c1ccnn1Cc1ccc(-c2noc(C(F)(F)F)n2)s1 [Compound 1.47, propyl 2-[[5-[5-(trifluoromethyl)-1,2,4-oxadiazol-3-yl]-2-thienyl]methyl]pyrazole-3-carboxylate]
≥ 80%: pest or weed control at 200 ppm [1] | pest or weed control at 200 ppm [2] | pest or weed control at 200 ppm (Phakopsora pachyrhizi) | inhibition of growth at 20 ppm [3]

CN(C)C(=O)c1ncnn1Cc1ccc(-c2noc(C(F)(F)F)n2)s1 [Compound 1.50, N,N-dimethyl-2-[[5-[5-(trifluoromethyl)-1,2,4-oxadiazol-3-yl]-2-thienyl]methyl]-1,2,4-triazole-3-carboxamide]
≥ 80%: pest or weed control at 200 ppm [1] | pest or weed control at 200 ppm [2] | pest or weed control at 200 ppm (Phakopsora pachyrhizi) | inhibition of growth at 20 ppm [3]

Nc1nc(C(F)F)nn1Cc1ccc(-c2noc(C(F)(F)F)n2)s1 [Compound 1.14, 5-(difluoromethyl)-2-[[5-[5-(trifluoromethyl)-1,2,4-oxadiazol-3-yl]-2-thienyl]methyl]-1,2,4-triazol-3-amine]
≥ 80%: pest or weed control at 200 ppm [1] | pest or weed control at 200 ppm [2] | pest or weed control at 200 ppm (Phakopsora pachyrhizi) | inhibition of growth at 20 ppm [3]

Cc1cc(C)n(Cc2ccc(-c3noc(C(F)(F)F)n3)s2)n1 [Compound 1.21, 3-[5-[(3,5-dimethylpyrazol-1-yl)methyl]-2-thienyl]-5-(trifluoromethyl)-1,2,4-oxadiazole]
≥ 80%: pest or weed control at 200 ppm [1] | pest or weed control at 200 ppm [2] | pest or weed control at 200 ppm (Phakopsora pachyrhizi) | inhibition of growth at 20 ppm [3]

COC(=O)c1ccn(Cc2ccc(-c3noc(C(F)(F)F)n3)s2)n1 [Compound 1.53, methyl 1-[[5-[5-(trifluoromethyl)-1,2,4-oxadiazol-3-yl]-2-thienyl]methyl]pyrazole-3-carboxylate]
≥ 80%: pest or weed control at 200 ppm [1] | pest or weed control at 200 ppm [2] | pest or weed control at 200 ppm (Phakopsora pachyrhizi) | inhibition of growth at 20 ppm [3]

CN(C)C(=O)c1ccnn1Cc1ccc(-c2noc(C(F)(F)F)n2)s1 [Compound 1.58, N,N-dimethyl-2-[[5-[5-(trifluoromethyl)-1,2,4-oxadiazol-3-yl]-2-thienyl]methyl]pyrazole-3-carboxamide]
≥ 80%: pest or weed control at 200 ppm [1] | pest or weed control at 200 ppm [2] | pest or weed control at 200 ppm (Phakopsora pachyrhizi)

CON(C)C(=O)c1cnn(C(C)c2ccc(-c3noc(C(F)(F)F)n3)s2)c1 (centres unmarked) [Compound 1.68, N-methoxy-N-methyl-1-[1-[5-[5-(trifluoromethyl)-1,2,4-oxadiazol-3-yl]-2-thienyl]ethyl]pyrazole-4-carboxamide]
≥ 80%: pest or weed control at 200 ppm [1] | pest or weed control at 200 ppm [2] | inhibition of growth at 20 ppm [3]

CC(C)(C)CNC(=O)c1cnn(Cc2ccc(-c3noc(C(F)(F)F)n3)s2)c1 [Compound 1.101, N-(2,2-dimethylpropyl)-1-[[5-[5-(trifluoromethyl)-1,2,4-oxadiazol-3-yl]-2-thienyl]methyl]pyrazole-4-carboxamide]
≥ 80%: pest or weed control at 200 ppm [1] | pest or weed control at 200 ppm [2] | inhibition of growth at 20 ppm [3]

C=CCNC(=O)c1ncn(Cc2ccc(-c3noc(C(F)(F)F)n3)s2)n1 [Compound 1.151, N-allyl-1-[[5-[5-(trifluoromethyl)-1,2,4-oxadiazol-3-yl]-2-thienyl]methyl]-1,2,4-triazole-3-carboxamide]
≥ 80%: pest or weed control at 200 ppm [1] | pest or weed control at 200 ppm [2] | inhibition of growth at 20 ppm [3]

O=C(NC1CCC1)c1ncn(Cc2ccc(-c3noc(C(F)(F)F)n3)s2)n1 [Compound 1.91, N-cyclobutyl-1-[[5-[5-(trifluoromethyl)-1,2,4-oxadiazol-3-yl]-2-thienyl]methyl]-1,2,4-triazole-3-carboxamide]
≥ 80%: pest or weed control at 200 ppm [1] | pest or weed control at 200 ppm [2] | inhibition of growth at 20 ppm [3]
